Test results reported in patent publication US20080139387A1, “Fungicidal Mixtures” (BASF Aktiengesellschaft, priority 2004, published 2008).

System: Cochliobolus miyabeanus
Test: Activity against brown spot of rice caused by Cochliobolus miyabeanus, protective application
Type: in vivo
Conditions: individual active compound, rice seedlings, rated after six days
Description: The active compounds, separately or jointly, were prepared as a stock solution comprising 0.25% by weight of active compound in acetone or DMSO. 1% by weight of the emulsifier Uniperol® EL (wetting agent having emulsifying and dispersing action based on ethoxylated alkylphenols) was added to this solution, and the mixture was appropriately diluted with water to the desired concentration.
Use example—Activity against brown spot of rice caused by Cochliobolus miyabeanus, protective application Leaves of rice seedlings of the cultivar “Tai-Nong 67” which had been grown in pots were sprayed to runoff point with an aqueous suspension having the concentration of active compound stated below. The next day, the plants were inoculated with an aqueous spore suspension of Cochliobolus miyabeanus. The test plants were then placed in climatized chambers at 22-24° C. and 95-99% relative atmospheric humidity for six days. The extent of the development of infection on the leaves was then determined visually.
Evaluation is carried out by determining the infected leaf areas in percent. These percentages were converted into efficacies.
The efficacy (E) is calculated as follows using Abbot's formula: […]
α corresponds to the fungal infection of the treated plants in % and β corresponds to the fungal infection of the untreated (control) plants in % An efficacy of 0 means that the infection level of the treated plants corresponds to that of the untreated control plants; an efficacy of 100 means that the treated plants are not infected.
The expected efficacies of the mixtures of active compounds are determined using Colby's formula [R. S. Colby, Weeds, 15, 20-22 (1967)] and are compared with the observed efficacies.
E expected efficacy, expressed in % of the untreated control, when using the mixture of the active compounds A and B at the concentrations a and b x efficacy, expressed in % of the untreated control, when using active compound A at the concentration a y efficacy, expressed in % of the untreated control, when using active compound B at the concentration b

Compound | Efficacy in % of the untreated control (4 ppm in the spray liquor) [%] | Efficacy in % of the untreated control (1 ppm in the spray liquor) [%] | Efficacy in % of the untreated control (16 ppm in the spray liquor) [%]
CC1CCN(c2c(-c3c(F)cc(F)cc3F)c(Cl)nc3ncnn23)CC1 [I, 5-chloro-7-(4-methylpiperidin-1-yl)-6-(2,4,6-trifluorophenyl)-[1,2,4]tri-azolo[1,5-a]pyrimidine] | 32 | – | –
CCCCCCCCCCCCCN1CC(C)OC(C)C1 (stereo not shown) [II (tridemorph), tridemorph] | 0 | 0 | 9
